Reference: PubChem BioAssay AID624317 (Sanford-Burnham Center for Chemical Genomics, 2012)

Molecular target: Probable nicotinate-nucleotide adenylyltransferase (Staphylococcus aureus (strain N315)) (UniProt P65502)
Test: inhibitors of S. aureus NadD, dose response, biochemical, colorimetric, uHTS hits (AID 624317)
Details: purified NadD enzyme, colorimetric activity assay

Sequence of Probable nicotinate-nucleotide adenylyltransferase (Staphylococcus aureus (strain N315)) (P65502 whole entry, looked up): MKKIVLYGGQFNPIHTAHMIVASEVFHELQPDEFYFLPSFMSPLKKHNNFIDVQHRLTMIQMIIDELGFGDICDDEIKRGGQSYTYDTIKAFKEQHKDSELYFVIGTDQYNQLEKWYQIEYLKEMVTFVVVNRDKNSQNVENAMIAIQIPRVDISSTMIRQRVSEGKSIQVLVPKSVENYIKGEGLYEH

SMILES: C[c-]1[c-](C)[c-](C)[c-](C)[c-]1C.[Fe].c1cc2nccc(N3CCCC3)[c-]2c1 (stereo unspecified)
- IC50: 35.9 µM
